# Literature values as cited in article PMC6099102, “Effect of the Nature of Donor Atoms on the Thermodynamic, Kinetic and Relaxation Properties of Mn(II) Complexes Formed With Some Trisubstituted 12-Membered Macrocyclic Ligands” (Frontiers in Chemistry, 2018).
# Where two headings read alike, the source gives them in different places. Marks after values point to notes of the source that are not given here.
# How the values were obtained:
# [1] = cited from earlier work
# [2] = cited from earlier work; remark: listed apart in the source
# [3] = cited from earlier work; for Σ log K2H: log K1H + log K2H
# [4] = cited from earlier work; for log KML / log KMLH: Mn(II) complex; for pMn: pH = 7.4, cM = cL = 10^−5 M
# [5] = I = 0.1 M KCl, ref Forgács et al., [2016]
# [6] = I = 0.1 M KCl, ref Aime et al., [2011]
# [7] = 1H-relaxometry, ref Tircsó and Woods (in preparation)
# [8] = ref Tircsó and Woods (in preparation)
# [9] = 0.1 M KCl, ref Takács et al., [2014]
# [10] = I = 0.1 M KCl, ref Takács et al., [2014]
compound,measurement,setting,value
CN(C)C(=O)CN1CCNCCNCCN(CC(=O)N(C)C)CC1.[Mn+2] [[Mn(cis-DO2AM^Me2)]^2+],k1 (proton-assisted dissociation),[1]; [5],8.7 M⁻¹ s⁻¹
same,t1/2 0.1 M HCl,[1]; [5],0.0132 min
same,t1/2 pH = 7.4 cM = 10^−5 M,[1]; [5],556 h
same,r1p,[2]; ref Forgács et al. ([2016]),2.50^[h] mM^−1s^−1
O=C([O-])CN1CCN(CC(=O)O)CCN(CC(=O)[O-])CCN(CC(=O)O)CC1.[Mn+2] [[Mn(H2DOTA)]],r1p,"[2]; 0.5 T field strength (20 MHz) and 37 °C, ref Wang and Westmoreland ([2009])",3.20 mM⁻¹ s⁻¹
CC(C(=O)O)N1CCN(C(C)C(=O)O)CCN(C(C)C(=O)O)CCN(C(C)C(=O)O)CC1 (centres unmarked) [DOTMA],log K1H,[3]; [6],11.72
same,log K2H,[3]; [6],9.06
same,log K3H,[3]; [6],4.74
same,log K4H,[3]; [6],5.59
same,log K5H,[3]; [6],1.92
same,Σ log K2H,[3]; [6],20.78
same,log KML,[4]; [7],18.37^[a]
same,log KMLH,[4]; [7],4.56^[a]
same,pMn,[4]; [8],8.69
CC(C(=O)[O-])N1CCN(C(C)C(=O)O)CCN(C(C)C(=O)[O-])CCN(C(C)C(=O)O)CC1.[Mn+2] (centres unmarked) [[Mn(H2DOTMA)]],r1p,[2]; [8],2.98 mM⁻¹ s⁻¹
CN(C)C(=O)CN1CCNCCNCCN(CC(=O)N(C)C)CC1 [cis-DO2AM^Me2],log K1H,[3]; [5],10.14
same,log K2H,[3]; [5],8.38
same,Σ log K2H,[3]; [5],18.52
same,log KML,[4]; [5],12.64
same,pMn,[4]; [5],6.98
O=C([O-])CN1CCNCCN(CC(=O)[O-])CCNCC1.[Mn+2] [[Mn(trans-DO2A)]],k1 (proton-assisted dissociation),[1]; ref Garda et al. ([2016]),85 M⁻¹ s⁻¹
same,k2 (proton-assisted dissociation),[1]; ref Garda et al. ([2016]),3.0 × 10^6 M^−2s^−1
same,t1/2 pH = 7.4 cM = 10^−5 M,[1]; ref Garda et al. ([2016]),48 h
same,r1p,[2]; ref Rolla et al. ([2013]),1.50^[a] mM^−1s^−1
CC(C(=O)[O-])N1CCN(C(C)C(=O)[O-])CCN(C(C)C(=O)[O-])CCN(C(C)C(=O)[O-])CC1.[Mn+2] (centres unmarked) [[Mn(DOTMA)]^2−],k1 (proton-assisted dissociation),"[1]; 1.0 M KCl, proton-assisted dissociation of the [Mn(H2L)] complex, ref Tircsó and Woods (in preparation)",3.96e-05 M⁻¹ s⁻¹
same,t1/2 0.1 M HCl,"[1]; 1.0 M KCl, ref Tircsó and Woods (in preparation)",103 min
same,k0 (spontaneous dissociation),"[1]; 1.0 M KCl, spontaneous dissociation of the [Mn(H2L)] complex, ref Tircsó and Woods (in preparation)",0.000104 s⁻¹
same,r1p,[2]; [8],1.76 mM⁻¹ s⁻¹
O=C(O)CN1CCN(CC(=O)O)CCN(CC(=O)O)CCN(CC(=O)O)CC1 [DOTA],k1 (proton-assisted dissociation),"[1]; ref Drahos et al., [2011]",0.040 M⁻¹ s⁻¹
same,log K1H,[3]; [9],11.41
same,log K2H,[3]; [9],9.83
same,log K3H,[3]; [9],4.38
same,log K4H,[3]; [9],4.63
same,log K5H,[3]; [9],1.92
same,log K6H,[3]; [9],1.58
same,Σ log K2H,[3]; [9],21.24
same,log KML,[4]; [10],19.44
same,log KMLH,[4]; [10],3.96
same,pMn,[4]; [10],9.02
O=C(O)CN1CCNCCNCCN(CC(=O)O)CC1 [cis-DO2A],Σ log K2H,[3]; ref Garda et al. ([2016]),20.95
same,log K1H,[3]; ref Garda et al. ([2016]),11.44
same,log K2H,[3]; ref Garda et al. ([2016]),9.51
same,log K3H,[3]; ref Garda et al. ([2016]),4.14
same,log K4H,[3]; ref Garda et al. ([2016]),1.55
same,log KML,[4]; ref Garda et al. ([2016]),15.68
same,log KMLH,[4]; ref Garda et al. ([2016]),4.15
same,pMn,[4]; ref Garda et al. ([2016]),7.27
O=C(O)CN1CCNCCN(CC(=O)O)CCNCC1 [trans-DO2A],Σ log K2H,[3]; ref Garda et al. ([2016]),21.44
same,log K1H,[3]; ref Garda et al. ([2016]),11.69
same,log K2H,[3]; ref Garda et al. ([2016]),9.75
same,log K3H,[3]; ref Garda et al. ([2016]),3.97
same,log K4H,[3]; ref Garda et al. ([2016]),2.68
same,log KML,[4]; ref Garda et al. ([2016]),14.64
same,log KMLH,[4]; ref Garda et al. ([2016]),4.40
same,pMn,[4]; ref Garda et al. ([2016]),6.52
O=C([O-])CN1CCNCCNCCN(CC(=O)[O-])CC1.[Mn+2] [[Mn(cis-DO2A)]],k1 (proton-assisted dissociation),[1]; ref Garda et al. ([2016]),100 M⁻¹ s⁻¹
same,k2 (proton-assisted dissociation),[1]; ref Garda et al. ([2016]),1.6 × 10^6 M^−2s^−1
same,t1/2 pH = 7.4 cM = 10^−5 M,[1]; ref Garda et al. ([2016]),58 h
same,r1p,[2]; ref Rolla et al. ([2013]),2.10^[a] mM^−1s^−1
